Results published in patent US9381203B2, “Combination therapies for treatment of laminopathies, cellular aging, and atherosclerosis” (priority 2013, dated 2016).

Test system: HGPS patients
Assay: Kaplan-Meier survival analysis of treated vs. untreated HGPS patients
Format: in vivo, human
Description: Survival data of untreated subjects was collected from hospital case studies, newspaper articles, and other publicly available databases. “Untreated subjects” were defined as HGPS-diagnosed subjects who had no exposure to HGPS clinical treatment trial medications. In total, data from 155 subjects; including 100 deceased and 55 living, was used in the analysis, the cut-off date for which was Dec. 3, 2012.
“Treated subjects” were defined as all subjects who were enrolled in one or both of two HGPS farnesyltransferase inhibitor (FTI) clinical treatment trials to date, for any length of time. Treatment conditions for the initial, FTI-only, trial are described in Gordon et al., PNAS, 109:16666/16671, 2012. Treatment conditions for the three-drug combination of lonafarnib, pravastatin, and zoledronic acid, are described in Example 1. In total data from 43 subjects; including 4 deceased and 39 living, was included in the analysis.
Kaplan-Meier survival analyses were carried out using SAS statistical analysis software.

In the case of NC(=O)N1CCC(CC(=O)N2CCC([C@H]3c4ncc(Br)cc4CCc4cc(Cl)cc(Br)c43)CC2)CC1 [FTI, lonafarnib], the “Mean years of survival, treated vs. untreated” value (all subject groupings of FIG. 5, FTI only or with pravastatin and zoledronic acid) is reported as “significant increase in mean years of survival” and the “Survival of treated vs. untreated patients (Kaplan-Meier)” value (entire sample, 43 treated (FTI only or with pravastatin and zoledronic acid) vs. 155 untreated, FIG. 1) is reported as “significant survival benefit”.
